Data from PMC12064818, “A general assay platform to study protein pharmacology using ligand-dependent structural dynamics” (Nature Communications, 2025).

Target: firefly luciferase (FLuc) (Photinus pyralis, UniProt P08659)
Test: Thermal shift profiles (Thermofluor assay), FLuc;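 also: normalized first derivative of fluorescence (dF/dT) at the stated temperature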
Format: binding
Set-up: unit of the concentration uncertain
Conditions: 52.782 °C; compound 100 (unit uncertain)
Description: Thermal stabilization of proteins in the presence of the ligands were determined using Thermofluor technique. MicroAmp optical 384-well plates (Applied Biosystems by Life Technologies), ViiA 7 real-time PCR instrument (Applied Biosystems by Life Technologies) and SYPRO Orange (Life Technologies) were used to test the samples. The final concentration of the protein, compounds and dye were maintained at 5 µM, 100 µM and 10x respectively in a 20 µL reaction volume. […] Proteins were added to the 384-well plate first followed by the compounds. Samples were incubated for 10 mins at room temperature and protected from light. […] The plate was sealed with a MicroAmp optical adhesive film, centrifuged at 1500 RPM for 2 min, and then loaded onto the ViiA 7 real–time PCR instrument for fluorescence intensity measurements upon heating the sample from 25 to 95 °C at 1 °C/min increments. Data was exported to excel, fluorescence intensity data and its first derivative were normalized and plotted using GraphPad Prism to determine Tm. […]
6 Read ViiA7 Read the therm al unfolding of the protein with ViiA7 real-tim e PCR system
4 Prepare 50X dye in PBS: 1 μL Sypro Orange 5000X (Life Technologies), 99 μL ddH2O. Add 4 μL to each well Read the m elting tem perature from 25 to 95 °C using ViiA 7 real tim e PCR instrum ent by following the below instructions Perform therm al denaturation in 384-well assay plate […]

firefly luciferase (FLuc), sequence (P08659 whole entry): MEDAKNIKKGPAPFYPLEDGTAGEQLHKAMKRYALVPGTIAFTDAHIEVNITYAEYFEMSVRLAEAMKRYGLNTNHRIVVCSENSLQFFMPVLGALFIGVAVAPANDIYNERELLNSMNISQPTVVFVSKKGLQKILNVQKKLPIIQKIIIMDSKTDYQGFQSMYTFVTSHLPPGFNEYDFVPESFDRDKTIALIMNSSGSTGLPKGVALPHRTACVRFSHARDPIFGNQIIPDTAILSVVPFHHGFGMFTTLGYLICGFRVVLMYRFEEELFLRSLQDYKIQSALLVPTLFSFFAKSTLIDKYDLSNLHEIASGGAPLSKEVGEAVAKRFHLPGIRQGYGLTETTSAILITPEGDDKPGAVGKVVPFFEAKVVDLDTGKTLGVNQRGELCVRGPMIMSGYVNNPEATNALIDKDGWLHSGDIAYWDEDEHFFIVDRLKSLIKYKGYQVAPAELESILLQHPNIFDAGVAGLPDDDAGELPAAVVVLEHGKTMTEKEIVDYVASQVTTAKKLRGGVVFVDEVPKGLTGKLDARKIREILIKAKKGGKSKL

| Structure (SMILES) | Thermofluor FLuc, No ATP |
| --- | --- |
| CC(CNC(=O)C1CCN(C(=O)c2ncn3c2COC(c2ccccc2)C3)CC1)c1ccccc1 (centres unmarked) [NCGC 00449795] | 0.992 |
| COc1ccc(NC(=O)C2CCN(C(=O)c3ncn4c3COC(c3ccccc3)C4)CC2)cc1Cl (centres unmarked) [NCGC 00449919] | 0.994 |
